Experiments:
Assay type in all cases: cell-based
[1] = target: T1, human muscarinic M4 receptor (Homo sapiens, UniProt P08173); assay: Alphascreen Surefire phospho-ERK1/2 functional assay, M4; settings: for EC50: CHO cells stably expressing human M4, agonist 5 min, 37° C., read-out: pEC50 M4 (converted); for Emax: CHO, read-out: % Emax cf. ACh, M4
T1 construct: expressed in transfected cells
T1 sequence (P08173 1-479): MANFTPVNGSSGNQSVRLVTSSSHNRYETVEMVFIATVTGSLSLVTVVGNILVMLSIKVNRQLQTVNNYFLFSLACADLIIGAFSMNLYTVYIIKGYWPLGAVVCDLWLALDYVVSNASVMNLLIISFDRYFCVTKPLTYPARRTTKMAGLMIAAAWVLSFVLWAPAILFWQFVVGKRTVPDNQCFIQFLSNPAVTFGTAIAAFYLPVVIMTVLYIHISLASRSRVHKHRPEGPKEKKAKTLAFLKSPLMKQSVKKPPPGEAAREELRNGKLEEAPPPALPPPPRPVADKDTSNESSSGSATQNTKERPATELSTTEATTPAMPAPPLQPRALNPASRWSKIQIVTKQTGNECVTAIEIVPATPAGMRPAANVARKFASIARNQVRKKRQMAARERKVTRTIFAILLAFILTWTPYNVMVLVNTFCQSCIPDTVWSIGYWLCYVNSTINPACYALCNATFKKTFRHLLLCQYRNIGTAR
Description: (§1) ERK1/2 phosphorylation is a downstream consequence of both Gq/11 and Gi/o protein coupled receptor activation, making it highly suitable for the assessment of M1, M3 (Gq/11 coupled) and M2, M4 receptors (Gi/o coupled), rather than using different assay formats for different receptor subtypes. CHO cells stably expressing the human muscarinic M1, M2, M3 or M4 receptor were plated (25K/well) onto 96-well tissue culture plates in MEM-alpha+10% dialysed FBS. Once adhered, cells were serum-starved overnight. Agonist stimulation was performed by the addition of 5 μL agonist to the cells for 5 min (37° C.). Media was removed and 50 μL of lysis buffer added. After 15 min, a 4 μL sample was transferred to 384-well plate and 7 μL of detection mixture added. Plates were incubated for 2 h with gentle agitation in the dark and then read on a PHERAstar plate reader.
(§2) pEC50 and Emax figures were calculated from the resulting data for each receptor subtype.

[2] = target: T2, human muscarinic M3 receptor (Homo sapiens, UniProt P20309); assay: Alphascreen Surefire phospho-ERK1/2 functional assay, M3; settings: for EC50: CHO cells stably expressing human M3, agonist 5 min, 37° C., read-out: pEC50 M3 (converted); for Emax: CHO, read-out: % Emax cf. ACh, M3
T2 construct: expressed in transfected cells
Description: as §1, §2

[3] = target: T3, human muscarinic M2 receptor (Homo sapiens, UniProt P08172); assay: Alphascreen Surefire phospho-ERK1/2 functional assay, M2; settings: for EC50: CHO cells stably expressing human M2, agonist 5 min, 37° C., read-out: pEC50 M2 (converted); for Emax: CHO, read-out: % Emax cf. ACh, M2
T3 sequence (P08172 1-466): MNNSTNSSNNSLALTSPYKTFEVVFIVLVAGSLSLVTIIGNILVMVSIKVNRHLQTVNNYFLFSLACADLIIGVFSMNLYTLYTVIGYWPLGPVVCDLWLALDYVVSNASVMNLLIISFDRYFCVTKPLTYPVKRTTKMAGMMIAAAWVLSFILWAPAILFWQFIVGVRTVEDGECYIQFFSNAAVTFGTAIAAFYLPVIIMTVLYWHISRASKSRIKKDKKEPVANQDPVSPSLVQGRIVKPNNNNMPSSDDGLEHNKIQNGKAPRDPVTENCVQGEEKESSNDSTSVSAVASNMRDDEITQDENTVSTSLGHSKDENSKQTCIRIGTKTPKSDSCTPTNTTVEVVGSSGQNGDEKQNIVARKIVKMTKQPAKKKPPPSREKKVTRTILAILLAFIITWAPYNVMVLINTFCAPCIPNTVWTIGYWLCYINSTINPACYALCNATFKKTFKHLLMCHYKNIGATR
Description: as §1, §2

[4] = target: T4, human muscarinic M1 receptor (Homo sapiens, UniProt P11229); assay: Alphascreen Surefire phospho-ERK1/2 functional assay, M1; settings: for EC50: CHO cells stably expressing human M1, agonist 5 min, 37° C., read-out: pEC50 M1 (converted); for Emax: CHO, read-out: % Emax cf. ACh, M1
T4 sequence (P11229 1-460): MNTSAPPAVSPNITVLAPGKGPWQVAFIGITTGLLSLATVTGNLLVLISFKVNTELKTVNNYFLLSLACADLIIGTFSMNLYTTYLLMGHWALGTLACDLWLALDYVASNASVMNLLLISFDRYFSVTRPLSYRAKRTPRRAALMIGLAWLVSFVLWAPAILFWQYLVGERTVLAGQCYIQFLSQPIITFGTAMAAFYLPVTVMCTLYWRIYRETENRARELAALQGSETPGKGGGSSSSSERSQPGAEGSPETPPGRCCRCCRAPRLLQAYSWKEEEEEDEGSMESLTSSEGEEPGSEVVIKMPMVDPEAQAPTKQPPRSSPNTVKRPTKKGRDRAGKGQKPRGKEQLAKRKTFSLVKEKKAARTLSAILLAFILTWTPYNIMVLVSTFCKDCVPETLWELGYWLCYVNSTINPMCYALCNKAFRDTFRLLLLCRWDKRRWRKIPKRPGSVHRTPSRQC
Description: as §1, §2

T2 sequence (P20309 whole entry): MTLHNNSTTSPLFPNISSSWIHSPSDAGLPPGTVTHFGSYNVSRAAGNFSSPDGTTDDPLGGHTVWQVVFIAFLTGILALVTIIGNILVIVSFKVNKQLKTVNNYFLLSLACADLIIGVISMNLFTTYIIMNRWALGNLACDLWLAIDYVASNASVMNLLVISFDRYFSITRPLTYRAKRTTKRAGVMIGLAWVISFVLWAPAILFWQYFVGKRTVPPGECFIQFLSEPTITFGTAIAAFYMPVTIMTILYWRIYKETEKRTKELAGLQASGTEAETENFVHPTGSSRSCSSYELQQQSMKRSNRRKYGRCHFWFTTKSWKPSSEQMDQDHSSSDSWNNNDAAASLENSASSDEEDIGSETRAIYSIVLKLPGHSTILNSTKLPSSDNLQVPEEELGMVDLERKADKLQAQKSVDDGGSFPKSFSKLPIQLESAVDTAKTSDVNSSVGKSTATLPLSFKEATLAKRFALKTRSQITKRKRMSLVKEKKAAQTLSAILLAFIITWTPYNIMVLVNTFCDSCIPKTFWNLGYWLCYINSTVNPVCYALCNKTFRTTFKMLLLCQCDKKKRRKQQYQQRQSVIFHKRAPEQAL

Row | SMILES | EC50 [1] [µM] | Emax [1] [%] | EC50 [2] [µM] | Emax [2] [%] | EC50 [3] [µM] | Emax [3] [%] | EC50 [4] [µM] | Emax [4] [%]
1 | O=C1CCc2ccccc2N1CCCN1CCC(CCOC2=NOCC2)CC1 [Example 1, 1-(3-(4-(2-((4,5-dihydroisoxazol-3-yl)oxy)ethyl)piperidin-1-yl)propyl)-3,4-dihydroquinolin-2(1H)-one] | > 20 | 19 | > 20 | 0 | > 20 | 1 | 0.0631 | 92
2 | O=C1CCc2ccccc2N1CCCN1CCC(CCCCOC2=NOCC2)CC1 [Example 2, 1-(3-(4-(4-((4,5-dihydroisoxazol-3-yl)oxy)butyl)piperidin-1-yl)propyl)-3,4-dihydroquinolin-2(1H)-one] | > 20 | 10 | > 20 | 7 | > 20 | 3 | 0.00316 | 98
3 | O=C1CCc2ccccc2N1CCCN1[C@@H]2CC[C@H]1CC(CCOC1=NOCC1)C2 (stereo partly drawn) [Example 3, 1-(3-((1R,5S)-3-(2-((4,5-dihydroisoxazol-3-yl)oxy)ethyl)-8-azabicyclo[3.2.1]octan-8-yl)propyl)-3,4-dihydroquinolin-2(1H)-one] | > 20 | 53 | – | – | – | – | 0.1 | 37
4 | O=C1CCc2ccccc2N1CCCN1C2CCC1CC(CCCOC1=NOCC1)C2 (centres unmarked) [Example 4, 1-(3-(3-(3-((4,5-dihydroisoxazol-3-yl)oxy)propyl)-8-azabicyclo[3.2.1]octan-8-yl)propyl)-3,4-dihydroquinolin-2(1H)-one] | > 20 | 11 | > 20 | 0 | > 20 | 29 | 0.00316 | 71
5 | O=C1CCc2ccccc2N1CCCN1[C@@H]2CC[C@H]1C[C@@H](OCCOC1=NOCC1)C2 [Example 5, 1-(3-(3-(2-((4,5-dihydroisoxazol-3-yl)oxy)ethoxy)-8-azabicyclo[3.2.1]octan-8-yl)propyl)-3,4-dihydroquinolin-2(1H)-one] | > 20 | 19 | > 20 | 46 | > 20 | 16 | 0.00631 | 62
6 | O=C1CCc2ccccc2N1CCCN1[C@@H]2CC[C@H]1CN(CCCOC1=NOCC1)C2 [Example 6, 1-(3-((1R,5S)-3-(3-((4,5-dihydroisoxazol-3-yl)oxy)propyl)-3,8-diazabicyclo[3.2.1]octan-8-yl)propyl)-3,4-dihydroquinolin-2(1H)-one] | > 20 | 32 | > 0.2 | 0 | > 0.2 | 6 | < 0.000631 | 103
7 | O=C1COc2cc(F)ccc2N1CCCN1CCC(CCOC2=NOCC2)CC1 [Example 7, 4-(3-(4-(2-((4,5-dihydroisoxazol-3-yl)oxy)ethyl)piperidin-1-yl)propyl)-7-fluoro-2H-benzo[b][1,4]oxazin-3(4H)-one] | > 20 | 8 | – | – | – | – | 0.251 | 62
8 | O=C1COc2cc(F)ccc2N1CCCN1CCC(CCCCOC2=NOCC2)CC1 [Example 8, 4-(3-(4-(4-((4,5-dihydroisoxazol-3-yl)oxy)butyl)piperidin-1-yl)propyl)-7-fluoro-2H-benzo[b][1,4]oxazin-3(4H)-one] | 0.0251 | 25 | > 20 | 3 | > 20 | 4 | 0.01 | 102
9 | c1ccc2c(c1)CCCN2CCCN1C2CCC1CC(CCCOC1=NOCC1)C2 (centres unmarked) [Example 9, 3-(3-(8-(3-(3,4-dihydroquinolin-1(2H)-yl)propyl)-8-azabicyclo[3.2.1]octan-3-yl)propoxy)-4,5-dihydroisoxazole] | > 20 | 16 | > 20 | 21 | > 20 | 28 | 0.0251 | 40
10 | O=C1CCON1CCC1CCN(CCCN2C(=O)CCc3ccccc32)CC1 [Example 10, 2-(2-(1-(3-(2-oxo-3,4-dihydroquinolin-1(2H)-yl)propyl)piperidin-4-yl)ethyl)isoxazolidin-3-one] | > 20 | 13 | – | – | – | – | 0.794 | 73
11 | O=C1CCON1CCCCC1CCN(CCCN2C(=O)CCc3ccccc32)CC1 [Example 11, 2-(4-(1-(3-(2-oxo-3,4-dihydroquinolin-1(2H)-yl)propyl)piperidin-4-yl)butyl)isoxazolidin-3-one] | > 20 | 10 | > 20 | 7 | > 20 | 4 | 0.01 | 92
12 | O=C1CCON1CCCCCC1CCN(CCCN2C(=O)CCc3ccccc32)CC1 [Example 12, 2-(5-(1-(3-(2-oxo-3,4-dihydroquinolin-1(2H)-yl)propyl)piperidin-4-yl)pentyl)isoxazolidin-3-one] | > 20 | 5 | > 20 | 1 | > 20 | 2 | 0.02 | 41
13 | O=C1CCON1CCCC1C[C@@H]2CC[C@@H](C1)N2CCCN1C(=O)CCc2ccccc21 (stereo partly drawn) [Example 13, 2-(3-((1S,5S)-8-(3-(2-oxo-3,4-dihydroquinolin-1(2H)-yl)propyl)-8-azabicyclo[3.2.1]octan-3-yl)propyl)isoxazolidin-3-one] | > 20 | 12 | > 20 | 8 | > 20 | 9 | 0.1 | 62

Source: patent publication US12215099B2, “Quinolinone and benzoxazine derivatives as muscarinic M1 and/or M4 receptor agonists” (Nxera Pharma UK Limited, priority 2018, dated 2025)
